Consider 3 molecules from US7718612B2, “Pyridazinonyl macrocyclic hepatitis C serine protease inhibitors” (Enanta Pharmaceuticals, Inc., priority 2006, dated 2010).

As a reminder, the IC50 is the concentration that gives 50% inhibition. Lower therefore signals greater potency. In general, EC50 refers to the concentration needed to bring the measured effect to its halfway point.

Read-outs that look alike come from different tables or passages of the source.

For experiment [1], the target named is T1, full-length NS3 HCV protease 1b tethered with NS4A cofactor (Hepatitis C virus genotype 1b, UniProt Q9WMX2).
T1 construct: full-length NS3 HCV protease 1b tethered with NS4A cofactor; NS4A cofactor (tethered, fused to NS3)
As to the kind of experiment: NS3/NS4a Protease Enzyme Assay. The class given is biochemical. How it is done: HCV protease activity and inhibition is assayed using an internally quenched fluorogenic substrate. A DABCYL and an EDANS group are attached to opposite ends of a short peptide. Quenching of the EDANS fluorescence by the DABCYL group is relieved upon proteolytic cleavage. Fluorescence is measured with a Molecular Devices Fluoromax (or equivalent) using an excitation wavelength of 355 nm and an emission wavelength of 485 nm.
The assay is run in Corning white half-area 96-well plates (VWR 29444-312 [Corning 3693]) with full-length NS3 HCV protease 1b tethered with NS4A cofactor (final enzyme concentration 1 to 15 nM). The assay buffer is complemented with 10 μM NS4A cofactor Pep 4A (Anaspec 25336 or in-house, MW 1424.8). RET S1 (Ac-Asp-Glu-Asp(EDANS)-Glu-Glu-Abu-[COO]Ala-Ser-Lys-(DABCYL)-NH2, AnaSpec 22991, MW 1548.6) is used as the fluorogenic peptide substrate. The assay buffer contains 50 mM Hepes at pH 7.5, 30 mM NaCl and 10 mM BME. The enzyme reaction is followed over a 30 minutes time course at room temperature in the absence and presence of inhibitors.
The peptide inhibitors HCV Inh 1 (Anaspec 25345, MW 796.8) Ac-Asp-Glu-Met-Glu-Glu-Cys-OH, [−20° C.] and HCV Inh 2 (Anaspec 25346, MW 913.1) Ac-Asp-Glu-Dif-Cha-Cys-OH, are used as reference compounds.
IC50 values are calculated using XLFit in ActivityBase (IDBS) using equation 205: y=A+((B−A)/(1+((C/x)^D))).

Experiment [2] deals with HCV replicon RNA in Huh 11-7 cell line. Nature of the experiment: Cell-Based Replicon Assay. The following applies: Hepatitis C virus, 96 h, read-out: EC50 in the Cell-Based Replicon Assay. How it is done:
Quantification of HCV replicon RNA (HCV Cell Based Assay) is accomplished using the Huh 11-7 cell line (Lohmann, et al Science 285:110-113, 1999). Cells are seeded at 4×10^3 cells/well in 96 well plates and fed media containing DMEM (high glucose), 10% fetal calf serum, penicillin-streptomycin and non-essential amino acids. Cells are incubated in a 7.5% CO2 incubator at 37° C. At the end of the incubation period, total RNA is extracted and purified from cells using Ambion RNAqueous 96 Kit (Catalog No. AM1812). To amplify the HCV RNA so that sufficient material can be detected by an HCV specific probe (below), primers specific for HCV (below) mediate both the reverse transcription of the HCV RNA and the amplification of the cDNA by polymerase chain reaction (PCR) using the TaqMan One-Step RT-PCR Master Mix Kit (Applied Biosystems catalog no. 4309169). The nucleotide sequences of the RT-PCR primers, which are located in the NS5B region of the HCV genome, are the following:
Detection of the RT-PCR product is accomplished using the Applied Biosystems (ABI) Prism 7500 Sequence Detection System (SDS) that detects the fluorescence that is emitted when the probe, which is labeled with a fluorescence reporter dye and a quencher dye, is degraded during the PCR reaction. The increase in the amount of fluorescence is measured during each cycle of PCR and reflects the increasing amount of RT-PCR product. Specifically, quantification is based on the threshold cycle, where the amplification plot crosses a defined fluorescence threshold. […] The data is analyzed using the ABI SDS program version 1.7. […]
The RT-PCR product was detected using the following labeled probe: […]
To normalize the data to an internal control molecule within the cellular RNA, RT-PCR is performed on the cellular messenger RNA glyceraldehyde-3-phosphate dehydrogenase (GAPDH). […] GAPDH RT-PCR is performed on the same RNA sample from which the HCV copy number is determined. […] The ratio of HCV/GAPDH RNA is used to calculate the activity of compounds evaluated for inhibition of HCV RNA replication. […]
A general note: In antiviral work, replicon cells carry a viral genome segment that copies itself.

The mark [3] stands for this setting: Huh 11-7 cells, 4 days, HCV/GAPDH RNA ratio.

T1 sequence (Q9WMX2 1013-1657, looked up, natural form): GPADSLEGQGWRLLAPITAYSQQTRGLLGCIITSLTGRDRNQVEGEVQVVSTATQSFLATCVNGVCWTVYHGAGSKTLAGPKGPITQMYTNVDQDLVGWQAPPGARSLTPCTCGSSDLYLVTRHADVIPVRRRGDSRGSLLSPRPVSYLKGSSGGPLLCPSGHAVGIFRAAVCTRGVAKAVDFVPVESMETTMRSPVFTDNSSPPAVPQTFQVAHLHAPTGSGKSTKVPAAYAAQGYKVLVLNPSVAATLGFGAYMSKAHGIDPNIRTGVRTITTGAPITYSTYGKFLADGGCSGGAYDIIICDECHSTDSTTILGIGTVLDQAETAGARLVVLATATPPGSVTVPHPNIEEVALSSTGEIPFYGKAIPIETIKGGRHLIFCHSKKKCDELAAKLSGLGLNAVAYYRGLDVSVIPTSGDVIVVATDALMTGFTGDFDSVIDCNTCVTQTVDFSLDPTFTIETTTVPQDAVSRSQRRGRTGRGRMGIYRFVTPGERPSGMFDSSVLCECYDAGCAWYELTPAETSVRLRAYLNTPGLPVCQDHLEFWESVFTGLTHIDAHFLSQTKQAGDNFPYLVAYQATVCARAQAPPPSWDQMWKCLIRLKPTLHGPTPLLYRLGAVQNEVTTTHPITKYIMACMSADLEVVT

In experiment [1], `COc1c(-c2cccc3ccccc23)cnn([C@@H]2C[C@H]3C(=O)N[C@]4(C(=O)NS(=O)(=O)C5CC5)C[C@H]4/C=C\CCCCC[C@H](NC(=O)OC(C)(C)C)C(=O)N3C2)c1=O` [Example 30] returned an IC50 of 0.1 nM. Besides, in experiment [2], the EC50 is < 0.2 nM.
In experiment [1], `COc1c(-c2cccc3ccccc23)cnn(C2CC3C(=O)NC4(C(=O)NS(=O)(=O)C5CC5)CC4C=CCCCCCC(NC(=O)OC4CCCC4)C(=O)N3C2)c1=O` (stereo not drawn) [Example 32] came in with an IC50 of 0.4 nM. The EC50 in experiment [2] (setting [3]) is < 0.2 nM.
In experiment [1], `COc1c(-c2cccc3ccccc23)cnn(C2CC3C(=O)NC4(C(=O)NS(=O)(=O)C5CC5)CC4C=CCCCCCC(NC(=O)c4cccs4)C(=O)N3C2)c1=O` (stereo not drawn) [Example 34] had an IC50 of 0.2 nM. Moreover, the EC50 in experiment [2] (setting [3]) was < 0.2 nM.
